Holding throughout (format): in vivo
The subject of data set [1] is mice. Put plainly: Hypercalcemia assay: murine hypercalcemia model, single SC injection, blood ionized calcium. How it is done: Mice were challenged with vehicle (PBS, —X—), or with PTH-(1-34) (open symbols) or with PTH-(1-34)-Fc (closed symbols). Doses were 156 nmol/kg (circles), 469 nmol/kg (triangles) or 1,560 nmol/kg (squares). Data represent group means, n=6 mice/group.
We tested the potency and duration of effect of PTH-(1-34)-Fc in a murine hypercalcemia model. Briefly, mice were injected once SC with varying doses of PTH-(1-34) or PTH-(1-34)-Fc, and peripheral blood was collected from the retroorbital sinus for determination of blood ionized calcium. The half-life and the potency of PTH-(1-34)-Fc was greater than that of PTH-(1-34), as evidenced by the sustained hypercalcemic response of mice to the former agent (FIG. 4). Hypercalcemia induced by PTH-(1-34) persisted for 6-24 h, while equimolar doses of PTH-(1-34)-Fc caused more sustained hypercalcemia (48-72 h). This duration of response is consistent with greater half-life of the PTH-(1-34)-Fc construct vs. PTH-(1-34).

The subject of data set [2] is OVX cynomolgus monkeys. As to the kind of experiment: Single subcutaneous injection into OVX cynomolgus monkeys, serum total calcium. How it is done:
Monkeys were injected with PTH-(1-34)-Fc at doses of 1-30 μg/kg (n=1/group) or 100-1000 μg/kg (n=2/group). Serum was analyzed for total calcium. The dotted line indicates the threshold for hypercalcemia, based on an elevation of calcium greater than three standard deviations above the normal mean, on two or more consecutive timepoints.
The optimal dosing of primates may be less frequent compared to rats or mice. Weekly (or less frequent) dosing may be optimal in primates, based on the observation that the hypercalcemic response of OVX cynomolgus monkeys to a single subcutaneous injection of PTH-(1-34)-Fc (10-34 nmol/kg) persisted for about 168 hours (FIG. 11).

The test system of data set [3] is aged ovariectomized (OVX) rats. Put plainly: Monotherapy in aged ovariectomized (OVX) rats: twice-weekly treatment, BMD by DEXA and serum calcium. How it is done: Eleven months after OVX, rats were treated twice per week with phosphate-buffered saline (PBS, vehicle) or with APD (0.5 mg/kg) or with PTH-(1-34)-Fc (50 nmol/kg). DEXA was performed weekly. Blood was drawn 24 hours after the second weekly injection, when the calcemic effects of PTH-Fc are typically maximal. The effects of PTH-Fc administration on lumbar BMD (FIG. 11A), tibia/femur BMD (FIG. 11B), femoral metaphysis BMD (FIG. 11C), and serum calcium (FIG. 11D) were determined.
Sprague Dawley rats were OVX'd at 3 months of age and allowed to lose bone for 11 months. Other rats were sham-operated and treated twice per week with vehicle (PBS). OVX rats were treated twice per week with SC injections of either vehicle or the bisphosphonate APD (pamidronate, 0.5 mg/kg), or with PTH-(1-34)-Fc (50 nmol/kg) or with APD+PTH-(1-34)-Fc. BMD was determined weekly via dual energy X-ray absorptiometry (DEXA). Rats were sacrificed after 4 weeks of treatment. At the start of treatment, OVX rats had significant reductions in BMD at all skeletal sites analyzed, compared to vehicle-treated […] (FIG. 11, p<0.05, 2-way ANOVA).

Data set [4] concerns rats. Put plainly: Hypercalcemic response to a single SC injection in rats. Particulars: single SC injection 340 nmol/kg. How it is done: (See FIG. 10.) In an aged OVX rat model of osteoporosis, twice weekly dosing was able to reverse more than 50% of the bone loss induced by one year of estrogen ablation. The effect seen in the aged rat model was even greater when combined with a bisphosphonate (APD). In rats, a single SC injection of PTH-(1-34)-Fc (340 nmol/kg) caused a hypercalcemic response which persisted for 72 hours (FIG. 8). This duration is concordant with the rate of clearance of PTH-(1-34)-Fc from the serum, and is consistent with an optimal twice-weekly dosing regimen in rats.

In data set [5] the test system is mice. Put plainly: Chronic hypercalcemia induced by PTH-(1-34)-Fc challenge, antagonist given SC. Particulars: 30 mg/kg single SC, 24 h post challenge, vehicle-treated normal mice (normal control 1.35); the values are: blood ionized calcium. How it is done: Normal male mice were challenged once by SC injection with PTH-(1-34)-Fc (30 mg/kg) (open circles), or with vehicle (PBS, open squares). Some PTH-(1-34)-Fc-challenged mice were treated once, at the time of challenge, with [Asn10,Leu11]PTHrP-(7-34)-Fc at 10 (closed triangle), 30 (closed circle), or 100 mg/kg (closed square). […] Data represent means±SEM, n=5 mice/group.
In order to test the ability of [Asn10,Leu11]PTHrP-(7-34)-Fc to antagonize more chronic hypercalcemia, we used PTH-(1-34)-Fc as a long-acting calcemic agent. This study also represents a model for primary and secondary hyperparathyroidism, diseases which are characterized by persistent elevation of PTH levels. In vehicle-treated mice, a single SC injection of PTH-(1-34)-Fc (30 mg/kg) caused a robust hypercalcemic response in normal mice, reaching a level of 2.75 mg/dl at 24 h post challenge (vs. normal control value of 1.35).

Data set [6] relates to mice. Put plainly: Mouse bioassay: SC injection days 0, 5, 10; clinical chemistry (calcium, AP, TRAP) and tibial pQCT. How it is done: Peripheral blood was obtained daily for 3 days following single subcutaneous injections of the indicated compounds.
Peripheral quantitative computed tomography (pQCT) was performed on the proximal tibial metaphysis of mice on day 15, after injections of PTH constructs on day 0, 5 and 10.
We then tested the effects of PTH-(1-34), PTH-(1-34)-Fc, PTH-(1-31)-Fc and PTH-(1-30)-Fc in mice. Four week old male mice were injected on days 0, 5, and 10 with vehicle or with PTH fragments, by SC injection. Peripheral blood was obtained for clinical chemistry at 24, 48, and 72 h. Mice were killed on day 15, vertebrae, tibiae and femurs were harvested for histology and one tibia was collected for bone density measurements (peripheral quantitative computed tomography, pQCT). Clinical chemistry endpoints included total serum calcium, serum alkaline phosphatase (AP, a marker of osteoblast activity), and serum tartrate-resistant acid phosphatase (TRAP, a marker of osteoclast activity). For each animal, the ratio of AP:TRAP was calculated as an index of relative osteoblast activity compared to osteoclast activity. A higher AP:TRAP ratio would indicate a potentially more anabolic agent.

Regarding “PTH-(1-34)-Fc: human PTH-(1-34), SVSEIQLMHNLGKHLNSMERVEWLRKKLQDVHNF, linked at its C-terminus to an Fc domain”, the “peak ionized calcium levels compared with an equimolar dose of PTH-(1-34)” value in data set [1] (highest dose) is recorded as “greater increase in peak ionized calcium levels”. In addition, in data set [1] (highest dose employed), the “hypercalcemic response (area under the curve) relative to equimolar PTH-(1-34)” value is reported as 2.6 fold. In data set [1] (hypercalcemic response), the “potency compared with PTH-(1-34)” value is on record as “significantly greater”. Also, the duration of hypercalcemia in data set [1] (single SC injection, equimolar doses, blood ionized calcium) is 48 to 72 h. Besides, the “time within which a single subcutaneous dose is cleared” value in data set [2] (primates, inferred from calcemic response) is at most 1 week. The “persistence of hypercalcemic response” value was “about 168 hours” in data set [2] (single subcutaneous injection 10-34 nmol/kg) and 72 h in data set [4]. Further, the calcemic response result in data set [3] (50 nmol/kg twice per week, alone) was “mild and transient hypercalcemic response”. In addition, the “BMD at the femoral metaphysis” value in data set [3] (PTH-(1-34)-Fc 50 nmol/kg twice per week, alone or with APD 0.5 mg/kg, p<0.05) is on record as “significant increase in BMD”. Further, the “day after which hypercalcemic response resolved spontaneously” value in data set [3] (despite continued treatments) is over 10 days. The “reversal of bone loss induced by one year of estrogen ablation” value in data set [3] (twice weekly dosing) is on record as “more than 50%”. Further, the “duration of treatment at which BMD increase at the femoral metaphysis was significant” value in data set [3] (twice-weekly treatment) came out at 4 weeks. For the same substance, the level reached in hypercalcemic response in data set [5] was 2.75 mM. In addition, the “calculated AP:TRAP ratio” value in data set [6] (300 nmoles/kg) is listed as “increased over time”. For the same substance, the “serum AP (osteoblast marker)” value in data set [6] (300 nmoles/kg (given for PTH-(1-34)-Fc), 72 h) is reported as “significantly elevated”. In addition, the “time of peak serum calcium” value in data set [6] (300 nmoles/kg SC) is reported as 24 h. The serum calcium entry in data set [6] (300 nmoles/kg SC (equimolar), 24, 48, 72 h) was “dramatic and sustained increase”. For the same substance, the “bone mineral density (proximal tibial metaphysis)” value in data set [6] (300 nmoles/kg on day 0, 5, 10, pQCT day 15) was “no effect”. Besides, the “serum TRAP (osteoclast marker)” value in data set [6] (mice, after single SC injection) was “not significantly changed”.

The values are drawn from patent US6756480B2, “Modulators of receptors for parathyroid hormone and parathyroid hormone-related protein” (Amgen Inc., priority 2000, dated 2004).
